One block for each compound: values may come before it.
Assays:
[1] = test system: SKMEL-188 human melanoma cells; experiment: Proliferation (DNA synthesis) of SKMEL-188; format: cell-based; settings: SKMEL-188, 72 h
Experimental: To measure DNA synthesis, keratinocytes, melanoma or prostate cancer cells were plated in 96-well plates. After overnight incubation tested compounds were added to the medium to achieve final concentrations 10^−7-10^−10 [M]. 100 μl of medium per well containing vitamin D3 compound was added to the cells. After 36 hours of incubation [3H]-thymidine (specific activity 88.0 Ci/mmol; Amersham Biosciences, Picataway, N.Y., USA) was added at 1 μCi/mL medium. After 12 hours, media were discarded, cells detached with trypsin and harvested on a glass fiber filter (Packard, Meriden, Calif., USA). 3H-radioactivity was measured with a beta counter (Direct Beta-Counter Matrix 9600; Packard).
HaCaT keratinocytes were an incubated for 48 h (FIG. 48A) or 72 h (FIG. 48B) in the presence of graded concentrations of 20(OH)D2 and/or 1,25(OH)2D3. […] Data are shown as mean±SD (n 3); *, p<0.05; **, p<0.01.

[2] = target: T1, CYP27A1 (Homo sapiens, UniProt Q02318); experiment: Metabolism by CYP27A1 (cyclodextrin or phospholipid vesicles)
T1 sequence (Q02318 34-531): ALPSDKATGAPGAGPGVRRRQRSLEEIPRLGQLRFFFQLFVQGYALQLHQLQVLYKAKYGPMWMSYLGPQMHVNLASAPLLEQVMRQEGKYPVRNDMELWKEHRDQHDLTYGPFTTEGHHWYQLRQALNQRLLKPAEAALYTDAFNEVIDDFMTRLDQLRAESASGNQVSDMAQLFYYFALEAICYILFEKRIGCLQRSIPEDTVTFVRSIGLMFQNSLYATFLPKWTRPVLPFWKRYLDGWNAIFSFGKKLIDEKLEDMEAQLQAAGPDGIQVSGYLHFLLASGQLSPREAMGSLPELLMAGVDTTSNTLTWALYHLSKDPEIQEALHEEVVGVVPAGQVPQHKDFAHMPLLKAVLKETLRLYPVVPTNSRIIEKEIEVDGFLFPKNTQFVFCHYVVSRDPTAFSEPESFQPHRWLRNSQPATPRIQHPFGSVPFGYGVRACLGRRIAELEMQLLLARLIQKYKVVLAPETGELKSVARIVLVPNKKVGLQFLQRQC
Experimental: To test enzymatic metabolism of 20S(OH)D3 and 20R(OH)D3, the substrates were incorporated into phospholipid vesicles with the ratio of substrate to phospholipid being 0.025 mol/mol phospholipid. Vesicles were incubated with 2 μM bovine CYP11A1 or 0.06 μM human CYP27B1 for up to 10 min. To test enzymatic metabolism of 20(OH)D3 in CYP24, the substrate was incorporated into phospholipids vesicles with 0.15-0.5 μM CYP24. To test enzymatic metabolism of 20(OH)D3 in CYP27A1, purified CYP27A1 was preincubated with the vesicles for 6 min at 37° C. Adrenodoxin was added last to initiate the reaction. For kinetic experiments, the incubations were typically 0.5 mL and were carried out over the initial linear period of the reaction (10 min for vitamin D3 and cholesterol and 30 min for 20(OH)D3).
Kinetic characterization of the metabolism of 20(OH)D3 by CYP27A1 was carried out with substrate dissolved in either cyclodextrin or phospholipid vesicle. Vitamin D3 and 20(OH)D3 were incubated with 0.4 μM CYP27A1 and 1 μM CYP27A1, respectively, for 10 and 30 min. The products were analyzed by reverse phase HPLC. The hyperbolic curves were fitted using the equation v/[E]=(kcat—[S])/(Km+[S]) where v is reaction velocity, [E] is the CYP27A1 concentration, and [S] the substrate concentration.

[3] = test system: Col1A1 mRNA; experiment: Real time RT PCR Col1A1 mRNA, TGF-b1 stimulated skin fibroblasts; format: cell-based; settings: human skin fibroblasts
Experimental: Additional studies using human skin fibroblasts were performed employing a type I collagen specific ELISA Chondrex, and real time RT PCR to quantitate type I collagen protein and Col1A1 mRNA expression in culture of human fibroblast stimulated by TGF-b1 in the presence and absence of 17,20S(OH)2pD3 and/or 20(OH)D3. These studies confirmed that Type I collagen protein production that was induced by TGF-b1 and that Col1A1 mRNA that was induced by TGF-b1 were suppressed by these analogues (FIGS. 44A-44B).

[4] = test system: K562 human chronic myeloid leukemia cells; experiment: Viable cell count, K562 cells; format: cell-based; settings: 10^-7 M, 7 days
Experimental: K562 human chronic myeloid leukemia (erythroleukemia) and MEL mouse erytholeukemia cells were cultured in RPMI 1640 containing 10% FBS and treated with the drugs at concentrations 0.1 μM. A 0.1% ethanol (EtOH) or 2% DMSO were used as negative or positive control, respectively to estimate the vehicle effect and the ability of the cells to differentiate. Media were exchanged every 72 h and drugs added every day. Growth of cultures was estimated by counting number of viable cells (trypan blue negative cells) as described previously.

[5] = test system: HL-60 human promyelocytic leukemia cells; experiment: Monocytic differentiation (NBT), HL-60; format: cell-based; settings: HL-60, 0.1 μM
Experimental: HL-60 human promyelocytic and U937 promonocytic leukemia cells were treated with the drugs at 0.1 μM or vehicle (negative control or 12-O-tetradecanoylphorbol-13-acetate (TPA) (positive control). Media were changed every 72 h and test substances added fresh every day. Differentiation toward monocytes-like morphology and NBT-reduction has been assessed after 5 and 7 days. Cells (2×106) were washed with PBS four times and resuspended in 200 μL of NBT solution (4 mg/mL) in water. After the addition of 200 ul of TPA solution (2 ug/ml) in PBS cells were incubated at 37° C. for 60 min in 24-well plates. Cell differentiation was assessed by intracellular blue formazan deposits. The NBT positive and negative cells were scored under light microscopy examination (40×) with a minimum of 200 cells scored.
For spectrophotometric analysis the cells were washed twice with buffer containing cold bovine serum albumin solution (17 mg/mL BSA, 137 mmol/L, NaCl, 5 mmol/L, KCl, 0.8 mmol/L, MgSO4, […], HEPES, pH7.4) to remove unreacted NBT, and the insoluble formazan deposits in the resulting pellet were solubilized in 1 mL of a mixture containing 90% DMSO, 0.1% SDS and 0.01 mmol/L NaOH by vigorous vortexing. The samples were centrifuged 5 min at 1500 g to remove the cellular debris, and then the absorbance of supernatants was measured at 715 nm. Data are expressed as change in A715/106 cells.

Compound: C=C1/C(=C\C=C2/CCC[C@]3(C)[C@@H]([C@H](C)CCCC(C)(C)O)CC[C@@H]23)C[C@@H](O)C[C@@H]1O [1α,25-dihydroxycholecalciferol, (5Z,7E)-9,10-secocholesta-5,7,10(19)-triene-1α,3β,25-triol, reference compound]
- proliferation [1]: Dose dependent inhibition of the proliferation

- kcat ([2]; cyclodextrin): 0.013 ± 0.00033 s⁻¹
- kcat ([2]; phospholipid vesicles): 0.0126 ± 0.001 s⁻¹
Compound: C=C1CC[C@H](O)C/C1=C/C=C1\CCC[C@@]2(C)[C@H]1CC[C@@H]2[C@@](C)(O)CCCC(C)C [20(OH)D3, (5Z,7E)-9,10-secocholesta-5,7,10(19)-triene-3β,20-diol]
- TGF-b1 induced Col1A1 mRNA [3]: suppressed

Compound: C=C1CC[C@H](O)C/C1=C/C=C1\CCC[C@]2(C)[C@@H](C(C)=O)CC[C@@H]12 [pD3, (5Z,7E)-3β-hydroxy-9,10-secopregna-5,7,10(19)-trien-20-one]
- proliferation of K562 cells [4]: inhibit proliferation
- monocytic differentiation (NBT staining) [5]: induce monocytic differention
